For data set [1], the system named is Poly-L-Lysine Hydrobromide (PLL). Put plainly: Lysine depletion protocol (in chemico reactivity towards lysine). Conditions: 20 mM molecule incubated 1 h with DNFB 5 mM; FIG. 1B. As for the experimental part: In an embodiment, a Lysine depletion Protocol—“in house development protocol” was applied, comprising: Dissolve 0.01 g of Poly-L-Lysine Hydrobromide (PLL) (Sigma, P1399) in 100 mL of purified water (use within 2 months). Filter the solution with a syringe filter to remove aggregates and store ate 4° C. for further use. For plate coating add 50 μL of PLL to each well of the 96 black bottom glass microplate (Corning ref 45806) and incubate for 2 hours at 37° C. or 24 h at room temperature.
In an embodiment, after the coating procedure, the contents of the plate were discarded into a sink and the plate is washed 3 times with 200 μL of PBS per well. Blot any residual PBS by firmly tapping the plate upside-down on absorbent paper. 20 mM of each potential ACD inhibitory molecule/mixture is added and incubated with 70 μl of the strong skin sensitizer 1-fluoro-2,4-dinitrobenzene (DNFB) (5 mM in DMSO) for 1h; the mixture was transferred to the plate and incubated for 24 h at 37° C. The contents of the plate were discarded and the wells were washed 3 times with PBS as previously reported. 70 μL of 10 μM Fluorescein-5-Ex-Succinimidyl Ester (FSE) were added and incubated for 1 h in the dark at 37° C. The contents of the plate were discarded; the wells were washed 3 times with PBS as previously stated. The fluorescence was read in a microplate reader (Exc 485±20 nm and Em 530±30 nm). Synergy™ HT plate reader (BioTek Instruments, Inc., Winooski, VT, USA): Bottom read with a sensibility of 50. […]
In an embodiment, Reference control A is made with the solvent DMSO, with incubation with FSE and is used to calculate the maximum fluorescence or absorbance in the presence of LYS. […]
In an embodiment, Test chemicals were pre-weighted into 1.5 mL test tubes and dissolved in 1 mL of DMSO to prepare a 100 mM solution immediately before use. The weight of the test chemical to be added to the vial was determined based on the molecular weight and purity. […]
In an embodiment, for the data Analysis the percentage of peptide depletion is determined by using the following formula: […]

The test system of data set [2] is THP-1 cells. Put plainly: Maturation of THP-1 cells assessed by up-regulation of co-stimulatory molecules CD86 and CD54. As for the experimental part:
In an embodiment, the THP-1 cell line has been used as a dendritic cell (DC) surrogate for skin sensitizers hazard, following the OECD guidelines. […] The THP-1 cells are stabilized overnight at a density of 5×10^5 cells/mL. On the day after, cells are seeded in 12-well plates at a density of 8×10^5 cells/well and incubated for 24 h with medium (control), Dimethyl sulfoxide (DMSO) (allergens solvent) or with 20 mM of each inhibitor of ACD (NAC), (LYS) or mixture (NAC+LYS). In addition, sensitization is induced with the strong skin allergen 1-fluoro-2,4-dinitrobenzene (DNFB) (8 μM) or Methylisothiazolinone (MI) (100 μM) for 24 h. At the end of the incubation period, cells are washed with ice-cold PBS supplemented with 1% (v/v) inactivated FBS, centrifuged at 300×g for 5 min at 4° C. and pellets are dissolved in ice-cold PBS supplemented with 1% (v/v) inactivated FBS. Then, 100 µL of the cell suspension are incubated with, or without, 3 μL of anti-human CD54 antibody (#353111, Biolegend, San Diego, CA, USA) or anti-human CD86 (#305414, Biolegend, San Diego, CA, USA) antibody for 30 min at 4° C. […] A total of 1×10^4 living cells are considered for analysis. The CD86 and CD54 levels are analyzed by flow cytometry with the acquisition channels FL1 and FL4. Based on the geometric mean fluorescence intensity (MFI), the relative fluorescence intensity (RFI) of CD86 and CD54 for positive control cells and chemical-treated cells is calculated according to the following equation: […]

For data set [3], the system named is NRF2 dependent genes in HaCaT. Put plainly: Expression of NRF2 dependent genes in keratinocytes (real time PCR). In kind it is cell-based, human. Particulars: 6 h.
Protocol: HaCaT is cultured with Dulbecco's Modified Eagle's Medium (DMEM) (Sigma-Aldrich, St. Louis, MO, USA), supplemented with 10% (v/v) heat-inactivated fetal bovine serum (FBS), 1% (v/v) antibiotic solution (100 U/mL penicillin, 100 μg/mL streptomycin) (Gibco, Carlsbad, CA, USA), 3.7 g/L sodium bicarbonate and 1 mM sodium pyruvate (Sigma-Aldrich, St. Louis, MO, USA).
In an embodiment, HaCaT cells are seeded in 6-well plates at a density of 6×10^5 cells/well and allowed to adhere for 24 h. After that, cells are incubated for 24 h with exposure medium (control) or treated with 10 mM of NAC, 10 mM of LYS, 8 μM of DNFB, 100 μM of MI, or 10 mM+DNFB, 10 mM LYS+DNFB and 10 mM+MI, 10 mM LYS+MI for 6 h or 24 h.
In an embodiment, total RNA (ribonucleic acid) is extracted from HaCaT treated cells, as previously described by our group [37], with NZYol reagent, according to the manufacturer's instructions and its concentration is determined by OD260 measurement using a NanoDrop spectrophotometer (Thermo Scientific, Wilmington, DE, USA). Samples are stored in RNA Storage Solution at −80° C. until use. Total RNA (1 g) is reverse-transcribed using the iScript Select cDNA Synthesis Kit, and real-time reverse transcriptase-polymerase chain reaction (RT-PCR) reactions are performed, in duplicate for each sample, on a Bio-Rad MyCycler iQ5 (Hercules, CA, USA), as previously described by our group [38].
In an embodiment, after amplification, a threshold is set for each gene and Ct values are calculated for all samples. Gene expression changes are analyzed using Bio-Rad CFX Maestro 1.1 system software (Hercules, CA, USA). The results are normalized using Hprt-1 as the reference gene. Primer sequences are designed using Beacon Designer software version 7.7 (Premier Biosoft International, Palo Alto, CA, USA) and thoroughly tested.
The mark [4] stands for this setting: incubated before DNFB, vs DNFB alone.
Where [5] appears, read: incubated before MI, vs MI alone.

SMILES strings stand for the structures.

With `CC(=O)N[C@@H](CS)C(=O)O` [NAC, n-acetyl cysteine], in data set [1], the “reactivity of the strong allergen DNFB towards lysine (Lysine depletion)” value is on record as “significantly inhibit”. Moreover, the “CD54 and CD86 maturation levels, pre-incubation before allergen” value in data set [2] (pre-incubation (20 mM) before 24 h DNFB (8 μM) and MI (100 μM)) was “significantly decrease”. The HMOX1 expression entry in data set [3] (setting [4]) and in data set [3] (setting [5]) was “significantly decrease” throughout. Moreover, in data set [3] (setting [5]), the TRX1 expression result was “significantly decrease”.
Consider `NCCCC[C@H](N)C(=O)O` [LYS, lysine], for which the “reactivity of the strong allergen DNFB towards lysine (Lysine depletion)” value in data set [1] is reported as “significantly inhibit”. Besides, the “levels of the co-stimulatory molecules CD54 and CD86 (RFI), incubated alone” value in data set [2] (THP-1, 24 h, 20 mM, no allergen) was “do not significantly modify”. For the same compound, in data set [3] (setting [4]), the HMOX1 expression result is recorded as “significantly decrease” and the NQO1 expression result is reported as “significantly decrease”.

For the origin of these results see patent publication US20260263401A1, “Topical composition and uses thereof” (UNIVERSIDADE DE COIMBRA, priority 2022, published 2026).
